Results reported in patent publication US3968251A, “Arylacetylene compounds as antithrombotic agents” (Eli Lilly and Company, priority 1975, dated 1976).
Read-outs that look alike come from different tables or passages of the source.

Tested on: collagen-induced platelet aggregation
Test: collagen-induced platelet aggregation after oral dosing (method of Herrmann, et al., 139, 548 (1972))
Type: in vivo, Guinea pig
Conditions: for inhibition at 25 mg/kg: Cavia porcellus, Platelet, po, oral 25 mg/kg, guinea pig, read-out: Percent Inhibition of Collagen-Induced Platelet Aggregation
Description: Exp. Biol. Med., 139, 548 (1972).
The effect of (2'-fluoro-4-biphenyl)acetylene on collagen-induced platelet aggregation was tested by the method of Hermann, et al., Proc. Soc. Exp. Biol. Med., 139, 548 (1972). Guinea pigs weighing 300-400 g, were used. The compound was administered by oral dosing. At time intervals after dosing, blood samples were obtained for assessing platelet function. The collagen used to induce platelet aggregation was prepared from a stock solution obtained by solubilizing Sigma bovine Achilles Tendon with acetic acid. […] Each day 0.4 ml of 1 M aqueous hydroxide was added to a 1.0-ml aliquot of the stock solution, followed by further dilution with saline to yield the appropriate dilutions for use.

C#Cc1ccc(-c2ccccc2F)cc1 [(2'-fluoro-4-biphenyl)acetylene]
duration of activity (in words) (20 hours after oral dosing): activity still was observed 20 hours after dosing, indicating a long duration of activity | inhibition at 25 mg/kg (1.5 h, 90 min. after dosing, collagen dilution 1:4): 13% | inhibition at 25 mg/kg (1.5 h, 90 min. after dosing, collagen dilution 1:16, significant at P=0.05): 35% | inhibition at 25 mg/kg (1.5 h, 90 min. after dosing, collagen dilution 1:32, significant at P=0.01): 81% | inhibition at 25 mg/kg (3 h, 3 hrs. after dosing, collagen dilution 1:4, significant at P=0.01): 44% | inhibition at 25 mg/kg (3 h, 3 hrs. after dosing, collagen dilution 1:16, significant at P=0.01): 69% | inhibition at 25 mg/kg (3 h, 3 hrs. after dosing, collagen dilution 1:32, significant at P=0.01): 86% | inhibition at 25 mg/kg (6 h, 6 hrs. after dosing, collagen dilution 1:4): 16% | inhibition at 25 mg/kg (6 h, 6 hrs. after dosing, collagen dilution 1:16, significant at P=0.05): 42% | inhibition at 25 mg/kg (6 h, 6 hrs. after dosing, collagen dilution 1:32, significant at P=0.01): 49% | inhibition at 25 mg/kg (20 h, 20 hrs. after dosing, collagen dilution 1:4): 18% | inhibition at 25 mg/kg (20 h, 20 hrs. after dosing, collagen dilution 1:16, significant at P=0.01): 62% | inhibition at 25 mg/kg (20 h, 20 hrs. after dosing, collagen dilution 1:32, significant at P=0.01): 95% | inhibition of collagen-induced platelet aggregation (in words) (after oral dosing): active inhibitor of collagen-induced platelet aggregation | inhibition at highest collagen concentration (in words) (highest collagen concentration, after oral dosing): inhibited only at three hours after dosing | inhibition of weakest collagen challenge (in words) (weakest collagen challenge, after oral dosing): markedly inhibited at all time intervals after oral dosing
